# Laboratory results reported in ChEMBL document CHEMBL4138123, “Design, synthesis and biological evaluation of novel pyrazolochalcones as potential modulators of PI3K/Akt/mTOR pathway and inducers of apoptosis in breast cancer cells” (Eur J Med Chem, 2017).
# Legend:
# Assay type in all cases: functional
# [1] = tested on: MOLT-4; test: Cytotoxicity against human MOLT4 cells assessed as growth inhibition after 48 hrs by sulforhodamine B assay; settings: MOLT-4, 48 h
# [2] = tested on: DU-145; test: Cytotoxicity against human DU145 cells assessed as growth inhibition after 48 hrs by sulforhodamine B assay; settings: DU-145, 48 h
# [3] = tested on: SW-620; test: Cytotoxicity against human SW620 cells assessed as growth inhibition after 48 hrs by sulforhodamine B assay; settings: SW-620, 48 h
# [4] = tested on: COLO 205; test: Cytotoxicity against human COLO205 cells assessed as growth inhibition after 48 hrs by sulforhodamine B assay; settings: COLO 205, 48 h
# [5] = tested on: RXF 393; test: Cytotoxicity against human RXF393 cells assessed as growth inhibition after 48 hrs by sulforhodamine B assay; settings: RXF 393, 48 h
# [6] = tested on: UACC-257; test: Cytotoxicity against human UACC257 cells assessed as growth inhibition after 48 hrs by sulforhodamine B assay; settings: UACC-257, 48 h
# [7] = tested on: SK-MEL-2; test: Cytotoxicity against human SK-MEL-2 cells assessed as growth inhibition after 48 hrs by sulforhodamine B assay; settings: SK-MEL-2, 48 h
# [8] = tested on: NCI-H322M; test: Cytotoxicity against human NCI-H322M cells assessed as growth inhibition after 48 hrs by sulforhodamine B assay
smiles,measurement,setting,value
COc1ccc(-c2cc(/C=C/C(=O)c3ccc4c(c3)OCO4)[nH]n2)cc1OC,GI50,[1],2200 nM
same,GI50,[2],1640 nM
same,GI50,[3],1500 nM
same,GI50,[4],1550 nM
same,GI50,[5],1920 nM
same,GI50,[6],2160 nM
same,GI50,[7],2460 nM
same,GI50,[8],2670 nM
